The values that follow are results of earlier work, collected in patent US10874615B2, “Formulation having controlled, delayed release of active ingredient” (Merck Patent GmbH, priority 2015, dated 2020).

Each structure is given as a SMILES string.

For this data set the following is noted: after oral administration; first-pass metabolism.

As for `CC(C)NCC(O)COc1cccc2ccccc12` (stereo not shown) [propranolol], the bioavailability was 25-30%.
